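Protocol summary: plate cells (96-well), add compound at 5 concentrations, incubate 48 h, interpolate endpoints linearly. Abbreviation: GI50, concentration required for 50% inhibition of growth. The concentration for full growth arrest is given as TGI.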
Assays:
Assay in all cases: growth of human tumour cells (NCI), 48 h
[1] = test system: KM12 colon
[2] = test system: EKVX NSCLC
[3] = test system: ACHN renal
[4] = test system: HT29 colon
[5] = test system: HCT-116 colon
[6] = test system: NCI-H522 lung
[7] = test system: SR leukemia
[8] = test system: NCI-H23 lung
[9] = test system: A498 renal
[10] = test system: HCT-15 colon
[11] = test system: K-562 leukemia
[12] = test system: MOLT-4 leukemia
[13] = test system: MDA-MB-468 breast
[14] = test system: SK-MEL-5 melanoma
[15] = test system: SW-620 colon
[16] = test system: SNB-75 CNS
[17] = test system: SN12C renal
[18] = test system: SNB-19 CNS
[19] = test system: NCI-H226 lung
[20] = test system: SK-OV-3 ovarian
[21] = test system: SF-539 CNS
[22] = test system: SK-MEL-28 melanoma
[23] = test system: T-47D breast
[24] = test system: HOP-62 NSCLC
[25] = test system: OVCAR-8 ovarian
[26] = test system: HS 578T breast
[27] = test system: CAKI-1 renal
[28] = test system: OVCAR-5 ovarian
[29] = test system: SK-MEL-2 melanoma
[30] = test system: HCC-2998 colon
[31] = test system: OVCAR-4 ovarian
[32] = test system: U251 CNS
[33] = test system: MALME-3M melanoma
[34] = test system: MCF7 breast
[35] = test system: LOX IMVI melanoma
[36] = test system: NCI/ADR-RES ovarian
[37] = test system: RPMI-8226 leukemia
[38] = test system: IGROV1 ovarian
[39] = test system: HOP-92 NSCLC
[40] = test system: OVCAR-3 ovarian
[41] = test system: COLO 205 colon
[42] = test system: MDA-MB-231 breast
[43] = test system: 786-0 renal
[44] = test system: BT-549 breast
[45] = test system: M14 melanoma
[46] = test system: UACC-62 melanoma
[47] = test system: CCRF-CEM leukemia
[48] = test system: SF-268 CNS
[49] = test system: DU-145 prostate
[50] = test system: UACC-257 melanoma
[51] = test system: RXF 393 renal
[52] = test system: A549 NSCLC
[53] = test system: NCI-H460 lung
[54] = test system: TK-10 renal
[55] = test system: SF-295 CNS
[56] = test system: HL-60(TB) leukemia
[57] = test system: PC-3 prostate
[58] = test system: UO-31 renal
[59] = test system: MDA-MB-435

OC1CCC(Cn2c(C(F)(F)F)cc3c(Cl)ncnc32)CC1 (stereo not drawn)
GI50 [1]: 26.4 µM
TGI [1]: 94.3 µM
GI50 [2]: 12.9 µM
TGI [2]: 38.7 µM
GI50 [3]: 8.76 µM
TGI [3]: 49.9 µM
GI50 [4]: 15.6 µM
TGI [4]: > 100 µM
GI50 [5]: 3.56 µM
TGI [5]: 15.8 µM
GI50 [6]: 1.54 µM
TGI [6]: 3.55 µM
GI50 [7]: 2.14 µM
TGI [7]: 6.78 µM
GI50 [8]: 3.08 µM
TGI [8]: 11.4 µM
GI50 [9]: > 100 µM
TGI [9]: > 100 µM
GI50 [10]: 3.69 µM
TGI [10]: 20.1 µM
GI50 [11]: 2.88 µM
TGI [11]: > 100 µM
GI50 [12]: 2.77 µM
TGI [12]: 8.15 µM
GI50 [13]: 2.14 µM
TGI [13]: 5.69 µM
GI50 [14]: 4.81 µM
TGI [14]: 16.7 µM
GI50 [15]: 12.2 µM
TGI [15]: 38.8 µM
GI50 [16]: 10.8 µM
TGI [16]: 23.1 µM
GI50 [17]: 5.36 µM
TGI [17]: 19.8 µM
GI50 [18]: 13.4 µM
TGI [18]: 26.8 µM
GI50 [19]: 23.4 µM
TGI [19]: 79.7 µM
GI50 [20]: 22.4 µM
TGI [20]: > 100 µM
GI50 [21]: 17.7 µM
TGI [21]: 39 µM
GI50 [22]: 9.38 µM
TGI [22]: 30.8 µM
GI50 [23]: 26.5 µM
TGI [23]: > 100 µM
GI50 [24]: 19.7 µM
TGI [24]: 57.6 µM
GI50 [25]: 2.29 µM
TGI [25]: 5.39 µM
GI50 [26]: 13.8 µM
TGI [26]: 53.6 µM
GI50 [27]: 16.8 µM
TGI [27]: 52.8 µM
GI50 [28]: > 100 µM
TGI [28]: > 100 µM
GI50 [29]: 13.2 µM
TGI [29]: 27.9 µM
GI50 [30]: 1.8 µM
TGI [30]: 3.33 µM
GI50 [31]: 17.8 µM
TGI [31]: 47.2 µM
GI50 [32]: 3.21 µM
TGI [32]: 12.8 µM
GI50 [33]: 17.7 µM
TGI [33]: 64.5 µM
GI50 [34]: 36.9 µM
TGI [34]: > 100 µM
GI50 [35]: 1.71 µM
TGI [35]: 3.15 µM
GI50 [36]: 26.1 µM
TGI [36]: > 100 µM
GI50 [37]: 34 µM
TGI [37]: > 100 µM
GI50 [38]: 1.97 µM
TGI [38]: 4.07 µM
GI50 [39]: 20.6 µM
TGI [39]: 64.6 µM
GI50 [40]: 8.04 µM
TGI [40]: 29.1 µM
GI50 [41]: 24.4 µM
TGI [41]: > 100 µM
GI50 [42]: 4.45 µM
TGI [42]: 20.1 µM
GI50 [43]: 32.1 µM
TGI [43]: > 100 µM
GI50 [44]: 13.1 µM
TGI [44]: 27.9 µM
GI50 [45]: 4.94 µM
TGI [45]: 27 µM
GI50 [46]: 5.4 µM
TGI [46]: 19.3 µM
GI50 [47]: 5.56 µM
TGI [47]: > 100 µM
GI50 [48]: 2.52 µM
TGI [48]: 6.89 µM
GI50 [49]: 7.87 µM
TGI [49]: 20.5 µM
GI50 [50]: 3.4 µM
TGI [50]: 14.1 µM
GI50 [51]: 12.5 µM
TGI [51]: 35 µM
GI50 [52]: 30.8 µM
TGI [52]: > 100 µM
GI50 [53]: 4.76 µM
TGI [53]: 16.6 µM
GI50 [54]: > 100 µM
TGI [54]: > 100 µM
GI50 [55]: 22.7 µM
TGI [55]: 84 µM
GI50 [56]: 2.62 µM
TGI [56]: 9.01 µM
GI50 [57]: 9.01 µM
TGI [57]: 36.3 µM
GI50 [58]: 15.1 µM
TGI [58]: 65.8 µM
GI50 [59]: 12.1 µM
TGI [59]: 25.8 µM
